Patent US11767310B2, “Nicotinamide RIPK1 inhibitors” (AbbVie Inc., priority 2021, dated 2023)
Where two headings read alike, the source gives them in different places.

Key:
non-mutant kinases = assay: Selectivity score (S-score) from kinase binding screen; design: species or system human; conditions: Screening Concentration 100 nM; 403 non-mutant kinases
Experimental: Based on the binding affinities in Table D, a selectivity score (S-score) was calculated for each compound as a quantitative measure of compound selectivity. The S-score is calculated by dividing the number of kinases that a compound binds to by the total number of distinct kinases tested, excluding mutant variants. The selectivity score value can be calculated using % Ctrl as a potency threshold, as shown below, and provides a quantitative method of describing compound selectivity to facilitate comparison of different compounds.
S(10)=(number of non-mutant kinases with % Ctrl<[…])/(number of non-mutant kinases tested).
[…]=(number of non-mutant kinases with % Ctrl<[…])/(number of non-mutant kinases tested).
[…]=(number of non-mutant kinases with % Ctrl<1)/(number of non-mutant kinases tested).

[1] = target: ABL1(M351T)-phosphorylated (Homo sapiens (Human), UniProt P00519, M351T); assay: Kinase binding screen; conditions: read-out: Percent Control at 100 nM Compound Concentration
ACVR2B = ACVR2B (Homo sapiens (Human), UniProt Q13705); assay: Kinase binding screen; conditions: read-out: Percent Control at 100 nM Compound Concentration
AKT2 = AKT2 (Homo sapiens (Human), UniProt P31751); assay: Kinase binding screen; conditions: read-out: Percent Control at 100 nM Compound Concentration
Sequence of AKT2 (P31751 whole entry): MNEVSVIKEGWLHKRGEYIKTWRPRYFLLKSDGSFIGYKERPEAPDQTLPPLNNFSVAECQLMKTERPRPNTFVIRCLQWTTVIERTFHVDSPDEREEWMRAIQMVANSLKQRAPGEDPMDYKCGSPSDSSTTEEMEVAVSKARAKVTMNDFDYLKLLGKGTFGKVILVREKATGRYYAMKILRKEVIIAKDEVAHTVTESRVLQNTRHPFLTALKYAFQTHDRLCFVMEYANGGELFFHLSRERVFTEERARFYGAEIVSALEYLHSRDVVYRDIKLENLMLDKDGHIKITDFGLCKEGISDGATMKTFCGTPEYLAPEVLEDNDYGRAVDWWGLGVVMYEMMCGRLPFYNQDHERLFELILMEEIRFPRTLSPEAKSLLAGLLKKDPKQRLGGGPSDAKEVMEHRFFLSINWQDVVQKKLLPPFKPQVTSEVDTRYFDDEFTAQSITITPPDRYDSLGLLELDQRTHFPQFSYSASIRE

ASK1 = ASK1 (Homo sapiens (Human), UniProt Q99683); assay: Kinase binding screen; conditions: read-out: Percent Control at 100 nM Compound Concentration
BRAF = BRAF (Homo sapiens (Human), UniProt P15056); assay: Kinase binding screen; conditions: read-out: Percent Control at 100 nM Compound Concentration
CDC2L1 = CDC2L1 (Homo sapiens (Human), UniProt P21127); assay: Kinase binding screen; conditions: read-out: Percent Control at 100 nM Compound Concentration
Sequence of CDC2L1 (P21127 whole entry): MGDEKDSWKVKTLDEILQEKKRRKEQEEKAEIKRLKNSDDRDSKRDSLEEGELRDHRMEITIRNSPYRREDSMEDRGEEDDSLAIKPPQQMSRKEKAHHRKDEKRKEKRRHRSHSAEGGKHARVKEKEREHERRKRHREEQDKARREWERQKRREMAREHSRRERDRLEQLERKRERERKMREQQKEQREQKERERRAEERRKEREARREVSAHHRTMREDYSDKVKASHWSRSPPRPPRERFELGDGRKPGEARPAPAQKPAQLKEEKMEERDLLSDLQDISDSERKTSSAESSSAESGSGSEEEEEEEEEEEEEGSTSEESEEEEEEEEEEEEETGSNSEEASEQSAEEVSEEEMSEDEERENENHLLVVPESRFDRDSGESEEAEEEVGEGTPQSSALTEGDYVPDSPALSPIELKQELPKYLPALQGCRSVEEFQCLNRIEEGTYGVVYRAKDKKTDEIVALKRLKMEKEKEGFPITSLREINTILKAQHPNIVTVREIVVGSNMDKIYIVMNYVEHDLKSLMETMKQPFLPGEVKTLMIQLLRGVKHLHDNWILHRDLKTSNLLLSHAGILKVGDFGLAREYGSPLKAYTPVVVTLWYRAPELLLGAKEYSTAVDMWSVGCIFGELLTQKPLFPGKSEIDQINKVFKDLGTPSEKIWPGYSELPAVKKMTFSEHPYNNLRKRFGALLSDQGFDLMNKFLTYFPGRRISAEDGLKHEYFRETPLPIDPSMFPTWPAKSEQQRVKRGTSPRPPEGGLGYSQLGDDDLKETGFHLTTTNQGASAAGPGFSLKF

CSF1R-autoinhibited = CSF1R-autoinhibited (Homo sapiens (Human), UniProt P07333); assay: Kinase binding screen; conditions: read-out: Percent Control at 100 nM Compound Concentration
Sequence of CSF1R-autoinhibited (P07333 539-972 limits assumed): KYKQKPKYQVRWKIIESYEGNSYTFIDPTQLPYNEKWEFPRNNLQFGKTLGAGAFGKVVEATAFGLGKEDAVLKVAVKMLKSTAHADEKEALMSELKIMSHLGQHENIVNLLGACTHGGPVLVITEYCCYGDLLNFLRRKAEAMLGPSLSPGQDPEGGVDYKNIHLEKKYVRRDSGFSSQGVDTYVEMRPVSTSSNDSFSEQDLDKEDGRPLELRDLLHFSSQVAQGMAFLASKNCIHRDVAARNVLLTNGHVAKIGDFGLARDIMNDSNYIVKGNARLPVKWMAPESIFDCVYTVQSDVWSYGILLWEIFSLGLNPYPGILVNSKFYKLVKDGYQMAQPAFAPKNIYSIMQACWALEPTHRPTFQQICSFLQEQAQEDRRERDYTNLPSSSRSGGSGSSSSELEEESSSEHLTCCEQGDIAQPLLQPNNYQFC

DDR1 = DDR1 (Homo sapiens (Human), UniProt Q08345); assay: Kinase binding screen; conditions: read-out: Percent Control at 100 nM Compound Concentration
EPHA1 = EPHA1 (Homo sapiens (Human), UniProt P21709); assay: Kinase binding screen; conditions: read-out: Percent Control at 100 nM Compound Concentration
EPHA7 = EPHA7 (Homo sapiens (Human), UniProt Q15375); assay: Kinase binding screen; conditions: read-out: Percent Control at 100 nM Compound Concentration
KIT = KIT (Homo sapiens (Human), UniProt P10721); assay: Kinase binding screen; conditions: read-out: Percent Control at 100 nM Compound Concentration
LKB1 = LKB1 (Homo sapiens (Human), UniProt Q15831); assay: Kinase binding screen; conditions: read-out: Percent Control at 100 nM Compound Concentration
MAP3K3 = MAP3K3 (Homo sapiens (Human), UniProt Q99759); assay: Kinase binding screen; conditions: read-out: Percent Control at 100 nM Compound Concentration
MEK4 = MEK4 (Homo sapiens (Human), UniProt P45985); assay: Kinase binding screen; conditions: read-out: Percent Control at 100 nM Compound Concentration
Sequence of MEK4 (P45985 whole entry): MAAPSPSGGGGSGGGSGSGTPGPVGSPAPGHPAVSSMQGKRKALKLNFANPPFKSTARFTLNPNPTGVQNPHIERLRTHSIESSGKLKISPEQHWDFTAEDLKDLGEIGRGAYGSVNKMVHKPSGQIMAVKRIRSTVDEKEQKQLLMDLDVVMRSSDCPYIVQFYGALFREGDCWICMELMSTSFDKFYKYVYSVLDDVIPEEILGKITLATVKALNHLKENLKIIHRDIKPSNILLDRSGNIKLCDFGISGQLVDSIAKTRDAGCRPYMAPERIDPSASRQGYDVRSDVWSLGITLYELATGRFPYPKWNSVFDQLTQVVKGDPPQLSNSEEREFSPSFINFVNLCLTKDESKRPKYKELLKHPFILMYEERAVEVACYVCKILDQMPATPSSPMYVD

MKNK2 = MKNK2 (Homo sapiens (Human), UniProt Q9HBH9); assay: Kinase binding screen; conditions: read-out: Percent Control at 100 nM Compound Concentration
MLK3 = MLK3 (Homo sapiens (Human), UniProt Q16584); assay: Kinase binding screen; conditions: read-out: Percent Control at 100 nM Compound Concentration
Sequence of MLK3 (Q16584 whole entry): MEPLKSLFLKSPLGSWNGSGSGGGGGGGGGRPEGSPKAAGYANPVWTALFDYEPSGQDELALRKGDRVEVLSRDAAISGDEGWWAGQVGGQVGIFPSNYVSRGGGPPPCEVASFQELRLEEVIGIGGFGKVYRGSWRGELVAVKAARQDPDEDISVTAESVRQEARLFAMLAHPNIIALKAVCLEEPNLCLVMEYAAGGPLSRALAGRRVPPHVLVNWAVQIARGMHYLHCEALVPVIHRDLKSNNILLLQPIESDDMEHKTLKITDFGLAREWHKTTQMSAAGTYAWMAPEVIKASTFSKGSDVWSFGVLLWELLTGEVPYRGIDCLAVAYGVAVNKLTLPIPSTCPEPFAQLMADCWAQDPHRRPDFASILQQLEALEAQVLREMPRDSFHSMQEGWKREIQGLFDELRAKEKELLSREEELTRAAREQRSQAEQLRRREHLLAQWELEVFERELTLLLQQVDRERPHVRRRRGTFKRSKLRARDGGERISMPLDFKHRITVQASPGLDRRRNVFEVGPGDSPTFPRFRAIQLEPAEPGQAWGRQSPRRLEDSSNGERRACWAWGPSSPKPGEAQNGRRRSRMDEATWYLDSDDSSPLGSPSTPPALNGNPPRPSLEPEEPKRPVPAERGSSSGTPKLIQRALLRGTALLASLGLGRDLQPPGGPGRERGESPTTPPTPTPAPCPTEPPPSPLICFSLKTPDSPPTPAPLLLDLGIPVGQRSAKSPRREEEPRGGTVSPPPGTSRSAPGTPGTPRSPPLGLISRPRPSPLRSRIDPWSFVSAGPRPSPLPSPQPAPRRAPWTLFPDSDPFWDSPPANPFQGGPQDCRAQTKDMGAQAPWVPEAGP

NEK11 = NEK11 (Homo sapiens (Human), UniProt Q8NG66); assay: Kinase binding screen; conditions: read-out: Percent Control at 100 nM Compound Concentration
NEK5 = NEK5 (Homo sapiens (Human), UniProt Q6P3R8); assay: Kinase binding screen; conditions: read-out: Percent Control at 100 nM Compound Concentration
PRKCQ = PRKCQ (Homo sapiens (Human), UniProt Q04759); assay: Kinase binding screen; conditions: read-out: Percent Control at 100 nM Compound Concentration
Sequence of PRKCQ (Q04759 whole entry): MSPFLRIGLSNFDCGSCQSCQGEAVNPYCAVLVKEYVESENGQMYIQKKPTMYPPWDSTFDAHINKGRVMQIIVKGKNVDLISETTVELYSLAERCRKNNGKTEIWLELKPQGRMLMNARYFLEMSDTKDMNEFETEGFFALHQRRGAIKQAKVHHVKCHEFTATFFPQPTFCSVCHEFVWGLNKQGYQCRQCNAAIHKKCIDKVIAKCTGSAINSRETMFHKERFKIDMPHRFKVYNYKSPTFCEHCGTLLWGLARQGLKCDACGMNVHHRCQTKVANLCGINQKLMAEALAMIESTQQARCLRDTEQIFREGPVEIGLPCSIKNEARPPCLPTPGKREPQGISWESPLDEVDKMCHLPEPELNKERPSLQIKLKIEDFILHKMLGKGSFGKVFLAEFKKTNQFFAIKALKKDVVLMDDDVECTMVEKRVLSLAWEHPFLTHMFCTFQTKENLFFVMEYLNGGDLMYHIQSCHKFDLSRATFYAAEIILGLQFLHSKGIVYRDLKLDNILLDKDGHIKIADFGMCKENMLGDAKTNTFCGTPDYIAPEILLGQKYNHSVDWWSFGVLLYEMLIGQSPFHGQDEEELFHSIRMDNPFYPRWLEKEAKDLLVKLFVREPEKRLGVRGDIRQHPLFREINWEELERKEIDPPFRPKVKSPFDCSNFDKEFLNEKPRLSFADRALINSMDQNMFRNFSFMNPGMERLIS

PRKR = PRKR (Homo sapiens (Human), UniProt P19525); assay: Kinase binding screen; conditions: read-out: Percent Control at 100 nM Compound Concentration
RIOK2 = RIOK2 (Homo sapiens (Human), UniProt Q9BVS4); assay: Kinase binding screen; conditions: read-out: Percent Control at 100 nM Compound Concentration
Sequence of RIOK2 (Q9BVS4 whole entry): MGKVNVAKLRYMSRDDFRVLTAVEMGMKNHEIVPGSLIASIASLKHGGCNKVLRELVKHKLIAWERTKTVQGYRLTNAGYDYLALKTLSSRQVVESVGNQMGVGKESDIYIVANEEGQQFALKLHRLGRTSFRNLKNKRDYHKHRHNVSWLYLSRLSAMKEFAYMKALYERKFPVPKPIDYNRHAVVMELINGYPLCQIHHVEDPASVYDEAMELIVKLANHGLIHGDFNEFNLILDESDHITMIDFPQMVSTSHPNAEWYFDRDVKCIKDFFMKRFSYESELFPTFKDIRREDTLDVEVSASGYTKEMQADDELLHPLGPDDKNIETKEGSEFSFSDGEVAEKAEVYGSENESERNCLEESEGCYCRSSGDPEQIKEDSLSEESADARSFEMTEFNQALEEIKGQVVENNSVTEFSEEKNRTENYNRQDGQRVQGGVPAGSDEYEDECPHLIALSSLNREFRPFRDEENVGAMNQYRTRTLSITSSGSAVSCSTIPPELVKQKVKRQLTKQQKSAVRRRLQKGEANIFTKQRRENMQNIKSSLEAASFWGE

[2] = target: RSK3(Kin.Dom.1-N-terminal) (Homo sapiens (Human), UniProt Q15349); assay: Kinase binding screen; conditions: read-out: Percent Control at 100 nM Compound Concentration
Sequence of RSK3(Kin.Dom.1-N-terminal) (Q15349 59-318): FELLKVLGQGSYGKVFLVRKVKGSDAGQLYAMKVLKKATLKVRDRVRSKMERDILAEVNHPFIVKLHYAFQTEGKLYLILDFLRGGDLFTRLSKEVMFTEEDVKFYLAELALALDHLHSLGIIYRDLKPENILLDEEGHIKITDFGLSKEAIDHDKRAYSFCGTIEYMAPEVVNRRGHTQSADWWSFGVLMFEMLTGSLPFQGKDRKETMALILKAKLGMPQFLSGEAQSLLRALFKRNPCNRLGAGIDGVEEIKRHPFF

SYK = SYK (Homo sapiens (Human), UniProt P43405); assay: Kinase binding screen; conditions: read-out: Percent Control at 100 nM Compound Concentration
TEC = TEC (Homo sapiens (Human), UniProt P42680); assay: Kinase binding screen; conditions: read-out: Percent Control at 100 nM Compound Concentration
ULK3 = ULK3 (Homo sapiens (Human), UniProt Q6PHR2); assay: Kinase binding screen; conditions: read-out: Percent Control at 100 nM Compound Concentration
Sequence of ULK3 (Q6PHR2 whole entry): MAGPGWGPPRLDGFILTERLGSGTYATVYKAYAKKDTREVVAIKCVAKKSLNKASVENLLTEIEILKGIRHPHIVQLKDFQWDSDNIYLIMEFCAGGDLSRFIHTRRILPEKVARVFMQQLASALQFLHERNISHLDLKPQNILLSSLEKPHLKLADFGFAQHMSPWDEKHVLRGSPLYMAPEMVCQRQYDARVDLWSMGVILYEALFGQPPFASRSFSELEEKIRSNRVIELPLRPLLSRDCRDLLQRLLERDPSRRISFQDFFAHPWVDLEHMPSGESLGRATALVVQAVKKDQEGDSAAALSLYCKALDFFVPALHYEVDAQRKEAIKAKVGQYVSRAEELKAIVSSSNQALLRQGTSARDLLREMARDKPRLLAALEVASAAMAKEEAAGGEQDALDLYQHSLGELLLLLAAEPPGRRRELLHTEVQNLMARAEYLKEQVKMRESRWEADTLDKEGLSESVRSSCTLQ

Structure (SMILES): CN(C[C@H](Cc1ccccc1)OP(=O)(O)O)C(=O)c1cncc(C#Cc2cnn(C(F)F)c2)c1 [Example 19, (S)-1-(5-((1-(difluoromethyl)-1H-pyrazol-4-yl)ethynyl)-N-methylnicotinamido)-3-phenylpropan-2-yl dihydrogen phosphate]
- Number of Hits S(1) (non-mutant kinases): 0
- Number of Hits S(10) (non-mutant kinases): 0
- Number of Hits S(35) (non-mutant kinases): 0
- remaining activity at 0.1 µM [1]: 97%
- remaining activity at 0.1 µM (ACVR2B): 99%
- remaining activity at 0.1 µM (AKT2): 90%
- remaining activity at 0.1 µM (ASK1): 100%
- remaining activity at 0.1 µM (BRAF): 100%
- remaining activity at 0.1 µM (CDC2L1): 100%
- remaining activity at 0.1 µM (CSF1R-autoinhibited): 99%
- remaining activity at 0.1 µM (DDR1): 100%
- remaining activity at 0.1 µM (EPHA1): 100%
- remaining activity at 0.1 µM (EPHA7): 96%
- remaining activity at 0.1 µM (KIT): 99%
- remaining activity at 0.1 µM (LKB1): 79%
- remaining activity at 0.1 µM (MAP3K3): 92%
- remaining activity at 0.1 µM (MEK4): 100%
- remaining activity at 0.1 µM (MKNK2): 79%
- remaining activity at 0.1 µM (MLK3): 89%
- remaining activity at 0.1 µM (NEK11): 95%
- remaining activity at 0.1 µM (NEK5): 94%
- remaining activity at 0.1 µM (PRKCQ): 98%
- remaining activity at 0.1 µM (PRKR): 97%
- remaining activity at 0.1 µM (RIOK2): 95%
- remaining activity at 0.1 µM [2]: 100%
- remaining activity at 0.1 µM (SYK): 93%
- remaining activity at 0.1 µM (TEC): 93%
- remaining activity at 0.1 µM (ULK3): 96%

Structure (SMILES): CN(C[C@@H](O)Cc1ccccc1)C(=O)c1cncc(C#Cc2cnn(C(F)F)c2)c1 [Example 2, (S)-5-((1-(difluoromethyl)-1H-pyrazol-4-yl)ethynyl)-N-(2-hydroxy-3-phenylpropyl)-N-methylnicotinamide]
- Number of Hits S(1) (non-mutant kinases): 0
- Number of Hits S(10) (non-mutant kinases): 1
- Number of Hits S(35) (non-mutant kinases): 3
- Selectivity Score S(10) (non-mutant kinases): 0.002
- Selectivity Score S(35) (non-mutant kinases): 0.007
- remaining activity at 0.1 µM ([1]; ABL1(M351T)-phosphorylated): 86%
- remaining activity at 0.1 µM (ACVR2B; ACVR2B): 91%
- remaining activity at 0.1 µM (AKT2; AKT2): 99%
- remaining activity at 0.1 µM (ASK1; ASK1): 88%
- remaining activity at 0.1 µM (BRAF; BRAF): 100%
- remaining activity at 0.1 µM (CDC2L1; CDC2L1): 100%
- remaining activity at 0.1 µM (CSF1R-autoinhibited; CSF1R-autoinhibited): 99%
- remaining activity at 0.1 µM (DDR1; DDR1): 100%
- remaining activity at 0.1 µM (EPHA1; EPHA1): 100%
- remaining activity at 0.1 µM (EPHA7; EPHA7): 97%
- remaining activity at 0.1 µM (KIT; KIT): 100%
- remaining activity at 0.1 µM (LKB1; LKB1): 70%
- remaining activity at 0.1 µM (MAP3K3; MAP3K3): 96%
- remaining activity at 0.1 µM (MEK4; MEK4): 100%
- remaining activity at 0.1 µM (MKNK2; MKNK2): 82%
- remaining activity at 0.1 µM (MLK3; MLK3): 95%
- remaining activity at 0.1 µM (NEK11; NEK11): 100%
- remaining activity at 0.1 µM (NEK5; NEK5): 100%
- remaining activity at 0.1 µM (PRKCQ; PRKCQ): 94%
- remaining activity at 0.1 µM (PRKR; PRKR): 100%
- remaining activity at 0.1 µM (RIOK2; RIOK2): 95%
- remaining activity at 0.1 µM ([2]; RSK3(Kin.Dom.1-N-terminal)): 97%
- remaining activity at 0.1 µM (SYK; SYK): 97%
- remaining activity at 0.1 µM (TEC; TEC): 99%
- remaining activity at 0.1 µM (ULK3; ULK3): 97%
